According to patent US10150770B2, “Crystal form of bisulfate of JAK inhibitor and preparation method therefor” (Jiangsu Hengrui Medicine Co., Ltd., priority 2014, dated 2018):

Assay: Stability test of solid forms spread flat in the air (lighting, heating, high humidity), purity detected by HPLC
Format: physicochemical
Conditions: for purity as detected by HPLC, 40° C.: heating 40° C.; for purity as detected by HPLC, 60° C.: heating 60° C.; for purity as detected by HPLC, RH 75%: high humidity RH 75%; for purity as detected by HPLC, RH 90%: high humidity RH 90%; for purity as detected by HPLC, Lighting: lighting 4500 Lux
Method: The amorphous sample prepared in Example 1 and crystal form I prepared in Example 3 were spread flat in the air to test their stability under the conditions of lighting (4500 Lux), heating (40° C., 60° C.), and high humidity (RH 75%, RH 90%).

SMILES	purity as detected by HPLC, 40° C. (day 0) [%]	purity as detected by HPLC, 40° C. (day 5) [%]	purity as detected by HPLC, 40° C. (day 10) [%]	purity as detected by HPLC, 60° C. (day 0) [%]	purity as detected by HPLC, 60° C. (day 5) [%]	purity as detected by HPLC, 60° C. (day 10) [%]	effect of high humidity on stability	purity as detected by HPLC, RH 75% (day 0) [%]	purity as detected by HPLC, RH 75% (day 5) [%]	purity as detected by HPLC, RH 75% (day 10) [%]	purity as detected by HPLC, RH 90% (day 0) [%]	purity as detected by HPLC, RH 90% (day 5) [%]	purity as detected by HPLC, RH 90% (day 10) [%]	purity as detected by HPLC, Lighting (day 0) [%]	purity as detected by HPLC, Lighting (day 5) [%]	purity as detected by HPLC, Lighting (day 10) [%]	stability under the conditions of lighting and high temperature (lighting and high temperature, compared with the amorphous sample)
COc1nsc(NC(=O)N2C[C@H]3C[C@H](N(C)c4ncnc5[nH]ccc45)C[C@H]3C2)n1.O=S(=O)(O)O [Crystal form I, (3aR,5s,6aS)—N-(3-methoxyl-1,2,4-thiadiazole-5-yl)-5-(methyl(7H-pyrrolo[2,3-d]pyrimidine-4-yl)amino)hexahydrocyclopenta[c]pyrrole-2(1H)-formamide bisulfate]	99.45	99.42	99.42	99.45	99.36	99.35	does not have much effect	99.45	99.42	99.40	99.45	99.42	99.39	99.45	99.40	99.39	significantly better than that of the amorphous sample
COc1nsc(NC(=O)N2C[C@H]3C[C@H](N(C)c4ncnc5[nH]ccc45)C[C@H]3C2)n1.O=S(=O)(O)O [Amorphous Form, (3aR,5s,6aS)—N-(3-methoxyl-1,2,4-thiadiazole-5-yl)-5-(methyl(7H-pyrrolo[2,3-d]pyrimidine-4-yl)amino)hexahydrocyclopenta[c]pyrrole-2(1H)-formamide bisulfate]	98.33	97.65	96.61	98.33	94.53	92.12	does not have much effect	98.33	98.32	98.16	98.33	99.14	99.12	98.33	98.04	97.51	–
